Experimental data as given in ChEMBL document CHEMBL1201861, “Genomics of Drug Sensitity in Cancer screening data, Wellcome Trust Sanger Institute”.

Key:
[1] = tested on: SR; assay: cells; format: functional, cell-based; details: Homo sapiens
Description: SANGER: Inhibition of human SR cell growth in a cell viability assay.

[2] = tested on: SCC-3; assay: cells; format: functional, cell-based; details: Homo sapiens;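 note: cell viability assay measuring inhibition of SCC-3 cell growth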
Description: SANGER: Inhibition of human SCC-3 cell growth in a cell viability assay.

[3] = tested on: KALS-1; assay: cells; format: functional, cell-based, Homo sapiens; details: Homo sapiens, KALS-1;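 note: growth inhibition of KALS-1 cells, determined with a cell viability assay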
Description: SANGER: Inhibition of human KALS-1 cell growth in a cell viability assay.

[4] = tested on: ARH-77; assay: cells; format: functional, cell-based; details: Homo sapiens;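 note: growth inhibition of ARH-77 cells, read out by a cell viability assay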
Description: SANGER: Inhibition of human ARH-77 cell growth in a cell viability assay.

[5] = tested on: GI-1; assay: cells; format: functional, cell-based, Homo sapiens; details: Homo sapiens, GI-1;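 note: growth inhibition of human GI-1 cells, measured with a cell viability readout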
Description: SANGER: Inhibition of human GI-1 cell growth in a cell viability assay.

[6] = tested on: Lu-65; assay: cells; format: functional, cell-based; details: Homo sapiens;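 note: growth inhibition of Lu-65 cancer cells, read out by a cell viability assay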
Description: SANGER: Inhibition of human LU-65 cell growth in a cell viability assay.

[7] = tested on: IMR-5; assay: cells; format: functional, cell-based; details: Homo sapiens;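 note: growth inhibition of human IMR-5 cells, read out with a cell viability assay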
Description: SANGER: Inhibition of human IMR-5 cell growth in a cell viability assay.

[8] = tested on: MRK-nu-1; assay: cells; format: functional, cell-based; details: Homo sapiens;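 note: cell viability assay measuring growth suppression of human MRK-nu-1 cells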
Description: SANGER: Inhibition of human MRK-nu-1 cell growth in a cell viability assay.

[9] = tested on: NCI-H1436; assay: cells; format: functional, cell-based; details: Homo sapiens;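 note: growth suppression of human NCI-H1436 cells, determined with a cell viability readout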
Description: SANGER: Inhibition of human NCI-H1436 cell growth in a cell viability assay.

[10] = tested on: KU-19-19; assay: cells; format: functional, cell-based, Homo sapiens; details: Homo sapiens, KU-19-19
Description: SANGER: Inhibition of human KU-19-19 cell growth in a cell viability assay.

[11] = tested on: SAS; assay: cells; format: functional, cell-based, Homo sapiens; details: Homo sapiens, SAS;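 note: growth inhibition of SAS cells, read out with a cell viability assay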
Description: SANGER: Inhibition of human SAS cell growth in a cell viability assay.

[12] = tested on: NCI-H1703; assay: cells; format: functional, cell-based, Homo sapiens; details: Homo sapiens, NCI-H1703;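 note: growth inhibition of NCI-H1703 cells, read out via a cell viability assay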
Description: SANGER: Inhibition of human NCI-H1703 cell growth in a cell viability assay.

[13] = tested on: ST486; assay: SANGER: Inhibition of human ST486 cell growth in a cell viability assay.; format: functional, cell-based
[14] = tested on: PANC-08-13; assay: cells; format: functional, cell-based, Homo sapiens; details: Homo sapiens, PANC-08-13
Description: SANGER: Inhibition of human PANC-08-13 cell growth in a cell viability assay.

[15] = tested on: SW1990; assay: cells; format: functional, cell-based, Homo sapiens; details: Homo sapiens, SW1990
Description: SANGER: Inhibition of human SW1990 cell growth in a cell viability assay.

[16] = tested on: NCI-H2141; assay: cells; format: functional, cell-based; details: Homo sapiens;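 note: growth inhibition of human NCI-H2141 cells, read out with a cell viability assay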
Description: SANGER: Inhibition of human NCI-H2141 cell growth in a cell viability assay.

[17] = tested on: G-361; assay: cells; format: functional, cell-based, Homo sapiens; details: Homo sapiens, G-361
[18] = tested on: NCI-H889; assay: cells; format: functional, cell-based; details: Homo sapiens;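 note: cell growth inhibition of the cell line, read out with a viability assay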
Description: SANGER: Inhibition of human NCI-H889 cell growth in a cell viability assay.

[19] = tested on: KMS-12-PE; assay: cells; format: functional, cell-based; details: Homo sapiens;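 note: growth inhibition of human KMS-12-PE cells, measured with a cell viability assay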
Description: SANGER: Inhibition of human KMS-12-PE cell growth in a cell viability assay.

[20] = tested on: NCI-H1694; assay: cells; format: functional, cell-based; details: Homo sapiens;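 note: cell viability assay measuring inhibition of growth in human NCI-H1694 cells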
Description: SANGER: Inhibition of human NCI-H1694 cell growth in a cell viability assay.

[21] = tested on: OAW-28; assay: cells; format: functional, cell-based, Homo sapiens; details: Homo sapiens, OAW-28;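 note: growth inhibition of OAW-28 cells, read out with a cell viability assay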
Description: SANGER: Inhibition of human OAW-28 cell growth in a cell viability assay.

[22] = tested on: REH; assay: cells; format: functional, cell-based; details: Homo sapiens;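 note: growth inhibition of REH cells determined with a cell viability read-out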
Description: SANGER: Inhibition of human REH cell growth in a cell viability assay.

[23] = tested on: A4-Fuk; assay: cells; format: functional, cell-based; details: Homo sapiens;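 note: growth inhibition of A4-Fuk cells, read out by a cell viability assay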
Description: SANGER: Inhibition of human A4-Fuk cell growth in a cell viability assay.

[24] = tested on: BC1 cell line; assay: SANGER: Inhibition of human BC-1 cell growth in a cell viability assay.; format: functional, cell-based
[25] = tested on: Daudi; assay: cells; format: functional, cell-based; details: Homo sapiens;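 note: growth inhibition of Daudi cells, read out by a viability assay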
Description: SANGER: Inhibition of human Daudi cell growth in a cell viability assay.

[26] = tested on: EB-3; assay: cells; format: functional, cell-based; details: Homo sapiens;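 note: human EB-3 cells, growth inhibition read out via a cell viability assay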
Description: SANGER: Inhibition of human EB-3 cell growth in a cell viability assay.

[27] = tested on: BOKU; assay: cells; format: functional, cell-based; details: Homo sapiens;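 note: growth inhibition of the human BOKU cell line, read out by a cell viability assay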
Description: SANGER: Inhibition of human BOKU cell growth in a cell viability assay.

[28] = tested on: K052; assay: cells; format: functional, cell-based; details: Homo sapiens;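 note: Read-out from a cell viability assay, IC50 reflecting suppression of K052 cell growth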
Description: SANGER: Inhibition of human K052 cell growth in a cell viability assay.

[29] = tested on: CA46; assay: cells; format: functional, cell-based; details: Homo sapiens;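 note: growth inhibition of human CA46 cells, read out by a cell viability assay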
Description: SANGER: Inhibition of human CA46 cell growth in a cell viability assay.

[30] = tested on: NCI-H345; assay: cells; format: functional, cell-based; details: Homo sapiens;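 note: growth inhibition of NCI-H345 cells measured with a cell viability assay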
Description: SANGER: Inhibition of human NCI-H345 cell growth in a cell viability assay.

[31] = tested on: NCI-H2081; assay: cells; format: functional, cell-based; details: Homo sapiens;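 note: growth inhibition of human NCI-H2081 cells, read out with a cell viability assay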
Description: SANGER: Inhibition of human NCI-H2081 cell growth in a cell viability assay.

[32] = tested on: L-540; assay: cells; format: functional, cell-based; details: Homo sapiens;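 note: growth inhibition of the human L-540 cell line, read out with a viability assay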
Description: SANGER: Inhibition of human L-540 cell growth in a cell viability assay.

[33] = tested on: SUP-T1; assay: cells; format: functional, cell-based; details: Homo sapiens;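 note: growth inhibition of human SUP-T1 cells, read out as cell viability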
Description: SANGER: Inhibition of human SUP-T1 cell growth in a cell viability assay.

[34] = tested on: NCI-H1963; assay: cells; format: functional, cell-based; details: Homo sapiens
Description: SANGER: Inhibition of human NCI-H1963 cell growth in a cell viability assay.

[35] = tested on: D283 Med; assay: cells; format: functional, cell-based, Homo sapiens; details: Homo sapiens, D283 Med
Description: SANGER: Inhibition of human D-283MED cell growth in a cell viability assay.

[36] = tested on: TE-15; assay: cells; format: functional, cell-based; details: Homo sapiens;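 note: cell viability readout of growth inhibition in TE-15 cells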
Description: SANGER: Inhibition of human TE-15 cell growth in a cell viability assay.

[37] = tested on: KARPAS-422; assay: cells; format: functional, cell-based; details: Homo sapiens
Description: SANGER: Inhibition of human KARPAS-422 cell growth in a cell viability assay.

[38] = tested on: LB647-SCLC; assay: cells; format: functional, cell-based; details: Homo sapiens;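 note: cell growth inhibition, read out by a viability assay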
Description: SANGER: Inhibition of human LB647-SCLC cell growth in a cell viability assay.

[39] = tested on: Raji; assay: cells; format: functional, cell-based; details: Homo sapiens;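 note: cell viability assay measuring inhibition of Raji cell growth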
Description: SANGER: Inhibition of human Raji cell growth in a cell viability assay.

[40] = tested on: DoTc2-4510; assay: cells; format: functional, cell-based, Homo sapiens; details: Homo sapiens, DoTc2-4510
[41] = tested on: NCI-H2009; assay: cells; format: functional, cell-based, Homo sapiens; details: Homo sapiens, NCI-H2009;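 note: cell viability assay measuring inhibition of NCI-H2009 cell growth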
Description: SANGER: Inhibition of human NCI-H2009 cell growth in a cell viability assay.

[42] = tested on: NB12; assay: cells; format: functional, cell-based, Homo sapiens; details: Homo sapiens, NB12;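 note: growth inhibition of human NB12 cells, read out by a cell viability assay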
Description: SANGER: Inhibition of human NB12 cell growth in a cell viability assay.

[43] = tested on: Ca9-22; assay: cells; format: functional, cell-based, Homo sapiens; details: Homo sapiens, Ca9-22;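 note: growth inhibition of Ca9-22 cells, read out with a cell viability assay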
Description: SANGER: Inhibition of human Ca9-22 cell growth in a cell viability assay.

[44] = tested on: SNU-C1; assay: cells; format: functional, cell-based; details: Homo sapiens;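 note: growth inhibition of SNU-C1 human cells, read out by a cell viability assay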
Description: SANGER: Inhibition of human SNU-C1 cell growth in a cell viability assay.

[45] = tested on: CAKI-1; assay: cells; format: functional, cell-based, Homo sapiens; details: Homo sapiens, CAKI-1;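 note: growth inhibition of CAKI-1 cells, measured by a cell viability assay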
Description: SANGER: Inhibition of human CAKI-1 cell growth in a cell viability assay.

[46] = tested on: Kasumi 1; assay: cells; format: functional, cell-based; details: Homo sapiens;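 note: growth inhibition of human Kasumi-1 cells, read out by a cell viability assay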
Description: SANGER: Inhibition of human KASUMI-1 cell growth in a cell viability assay.

[47] = tested on: OAW-42; assay: cells; format: functional, cell-based, Homo sapiens; details: Homo sapiens, OAW-42;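 note: growth inhibition of OAW-42 cells, read out with a cell viability assay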
Description: SANGER: Inhibition of human OAW-42 cell growth in a cell viability assay.

[48] = tested on: G-402; assay: cells; format: functional, cell-based, Homo sapiens; details: Homo sapiens, G-402
Description: SANGER: Inhibition of human G-402 cell growth in a cell viability assay.

[49] = tested on: ECC4; assay: cells; format: functional, cell-based; details: Homo sapiens;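 note: growth inhibition of ECC4 cells, read out with a cell viability assay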
Description: SANGER: Inhibition of human ECC4 cell growth in a cell viability assay.

[50] = tested on: NCI-H524; assay: cells; format: functional, cell-based; details: Homo sapiens;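 note: growth inhibition of human NCI-H524 cells, read out through a cell viability assay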
Description: SANGER: Inhibition of human NCI-H524 cell growth in a cell viability assay.

[51] = tested on: KURAMOCHI; assay: cells; format: functional, cell-based; details: Homo sapiens;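 note: growth inhibition of KURAMOCHI cells, read out with a cell viability assay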
Description: SANGER: Inhibition of human KURAMOCHI cell growth in a cell viability assay.

[52] = tested on: NCI-H1299; assay: cells; format: functional, cell-based, Homo sapiens; details: Homo sapiens, NCI-H1299;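 note: growth inhibition of human NCI-H1299 cells, read out by a cell viability assay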
Description: SANGER: Inhibition of human NCI-H1299 cell growth in a cell viability assay.

## COC(=O)CNC(=O)C(=O)OC
[1]
  IC50: 4.58 µM
[2]
  IC50: 1740 µM
[3]
  IC50: 624 µM
[4]
  IC50: 260 µM
[5]
  IC50: 146 µM
[6]
  IC50: 2360 µM
[7]
  IC50: 254 µM
[8]
  IC50: 1800 µM
[9]
  IC50: > 4000 µM
[10]
  IC50: 1010 µM
[11]
  IC50: 237 µM
[12]
  IC50: 1660 µM
[13]
  IC50: 71 µM
[14]
  IC50: 1460 µM
[15]
  IC50: 441 µM
[16]
  IC50: 351 µM
[17]
  IC50: 1180 µM
[18]
  IC50: > 4000 µM
[19]
  IC50: 628 µM
[20]
  IC50: 291 µM
[21]
  IC50: 2110 µM
[22]
  IC50: 308 µM
[23]
  IC50: 45 µM
[24]
  IC50: 86.1 µM
[25]
  IC50: 68.3 µM
[26]
  IC50: 49.6 µM
[27]
  IC50: 177 µM
[28]
  IC50: 171 µM
[29]
  IC50: 96 µM
[30]
  IC50: 648 µM
[31]
  IC50: 1010 µM
[32]
  IC50: 239 µM
[33]
  IC50: 143 µM
[34]
  IC50: 1030 µM
[35]
  IC50: 521 µM
[36]
  IC50: 218 µM
[37]
  IC50: 162 µM
[38]
  IC50: 3530 µM
[39]
  IC50: 609 µM
[40]
  IC50: 153 µM
[41]
  IC50: 296 µM
[42]
  IC50: 85.4 µM
[43]
  IC50: 924 µM
[44]
  IC50: 2100 µM
[45]
  IC50: 289 µM
[46]
  IC50: 122 µM
[47]
  IC50: 425 µM
[48]
  IC50: 1230 µM
[49]
  IC50: 3580 µM
[50]
  IC50: 2760 µM
[51]
  IC50: 1570 µM
[52]
  IC50: 2150 µM

## COc1cc([C@@H]2c3cc4c(cc3[C@@H](O[C@@H]3O[C@@H]5CO[C@@H](C)O[C@H]5[C@H](O)[C@H]3O)[C@H]3COC(=O)[C@H]23)OCO4)cc(OC)c1O [ETOPOSIDE]
[1]
  IC50: 0.443 µM
[2]
  IC50: 1.21 µM
[3]
  IC50: 10.3 µM
[4]
  IC50: 2.19 µM
[5]
  IC50: 0.713 µM
[6]
  IC50: > 16 µM
[7]
  IC50: 0.469 µM
[8]
  IC50: 0.116 µM
[9]
  IC50: > 16 µM
[10]
  IC50: > 16 µM
[11]
  IC50: 1.27 µM
[12]
  IC50: 1.3 µM
[13]
  IC50: 2.25 µM
[14]
  IC50: > 16 µM
[15]
  IC50: 5.64 µM
[16]
  IC50: 8.52 µM
[17]
  IC50: 0.834 µM
[18]
  IC50: > 16 µM
[19]
  IC50: 9.91 µM
[20]
  IC50: 1.37 µM
[21]
  IC50: 2.15 µM
[22]
  IC50: 0.224 µM
[23]
  IC50: 0.841 µM
[24]
  IC50: 0.545 µM
[25]
  IC50: 5.36 µM
[26]
  IC50: > 16 µM
[27]
  IC50: 1.63 µM
[28]
  IC50: > 16 µM
[29]
  IC50: > 16 µM
[30]
  IC50: > 16 µM
[31]
  IC50: 4.92 µM
[32]
  IC50: 1.06 µM
[33]
  IC50: 0.706 µM
[34]
  IC50: 12.1 µM
[35]
  IC50: 2.2 µM
[36]
  IC50: 0.96 µM
[37]
  IC50: 4.33 µM
[38]
  IC50: 2 µM
[39]
  IC50: 8.32 µM
[40]
  IC50: 1.05 µM
[41]
  IC50: 0.697 µM
[42]
  IC50: 1.08 µM
[43]
  IC50: 2.19 µM
[44]
  IC50: > 16 µM
[45]
  IC50: 6.65 µM
[46]
  IC50: 1.32 µM
[47]
  IC50: 6.06 µM
[48]
  IC50: 0.898 µM
[49]
  IC50: > 16 µM
[50]
  IC50: > 16 µM
[51]
  IC50: 0.699 µM
[52]
  IC50: 2.07 µM
